The target in test [1] is T1, panel of 442 kinases (Homo sapiens, UniProt O15530).
T1 construct: purchased KINOMEscan
T1 sequence (O15530 1-556): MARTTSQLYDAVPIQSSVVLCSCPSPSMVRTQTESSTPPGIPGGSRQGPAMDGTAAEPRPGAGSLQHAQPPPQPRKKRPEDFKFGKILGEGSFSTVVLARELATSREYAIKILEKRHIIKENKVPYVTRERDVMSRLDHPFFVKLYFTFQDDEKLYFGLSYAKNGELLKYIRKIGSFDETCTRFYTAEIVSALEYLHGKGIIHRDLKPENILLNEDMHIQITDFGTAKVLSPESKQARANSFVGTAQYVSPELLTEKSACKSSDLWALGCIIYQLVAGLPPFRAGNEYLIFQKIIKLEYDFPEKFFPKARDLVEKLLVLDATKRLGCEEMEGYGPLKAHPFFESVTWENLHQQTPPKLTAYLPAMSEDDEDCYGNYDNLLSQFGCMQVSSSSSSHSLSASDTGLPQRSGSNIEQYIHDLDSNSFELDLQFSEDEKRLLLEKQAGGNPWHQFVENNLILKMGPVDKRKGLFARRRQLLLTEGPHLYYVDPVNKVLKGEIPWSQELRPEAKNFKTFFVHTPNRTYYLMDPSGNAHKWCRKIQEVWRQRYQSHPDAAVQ
It counts as binding. The following applies: Compound Concentration 10 µM. The text has this: (§1) We assessed the selectivity of members of this scaffold using the KINOMEscan methodology across a near comprehensive panel of 442 kinases [[18,27]].

The target of test [2] is T2, panel of 442 kinases (Homo sapiens, UniProt Q04771).
T2 construct: purchased KINOMEscan
T2 sequence (Q04771 21-509): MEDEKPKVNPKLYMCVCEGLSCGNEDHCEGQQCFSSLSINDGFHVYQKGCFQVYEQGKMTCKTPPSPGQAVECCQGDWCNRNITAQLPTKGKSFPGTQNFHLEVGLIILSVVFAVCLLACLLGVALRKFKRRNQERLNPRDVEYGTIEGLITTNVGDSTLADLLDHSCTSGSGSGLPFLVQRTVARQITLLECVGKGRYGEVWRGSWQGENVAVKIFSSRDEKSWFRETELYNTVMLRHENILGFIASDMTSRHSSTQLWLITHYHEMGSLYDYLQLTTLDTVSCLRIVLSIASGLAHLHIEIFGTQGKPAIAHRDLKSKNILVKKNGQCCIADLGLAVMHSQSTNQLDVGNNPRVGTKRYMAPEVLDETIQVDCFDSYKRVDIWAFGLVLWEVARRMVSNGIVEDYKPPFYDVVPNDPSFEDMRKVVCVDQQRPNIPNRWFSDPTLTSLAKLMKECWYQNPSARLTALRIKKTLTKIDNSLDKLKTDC
The class given is binding. The following applies: Compound Concentration 10 µM.
From the text: as §1

Structures are written as SMILES.

Take `COc1cc(C(=O)N2CCC(N3CCN(C)CC3)CC2)ccc1Nc1ncc2c(n1)N(C1CCCC1)c1ccccc1C(=O)N2C` [Compound 25, 11-cyclopentyl-2-((2-methoxy-4-(4-(4-methylpiperazin-1-yl)piperidine-1-carbonyl)phenyl)amino)-5-methyl-5H-benzo[e]pyrimido[5,4-b][1,4]diazepin-6(11H)-one]: the “KINOMEscan: PDPK1” value on panel of 442 kinases [1] was 98. For the same molecule, on panel of 442 kinases [2], the “KINOMEscan: ACVR1” value worked out at 100.
The like results for `COc1cc(C(=O)N2CCC(N3CCN(C)CC3)CC2)ccc1Nc1ncc2c(n1)N(C)c1ccccc1C(=O)N2C` [15 (LRRK2-IN-1)] were, in that order, 100 and 98.
As for `CCOc1cc(C(=O)N2CCC(N3CCN(C)CC3)CC2)ccc1Nc1ncc2c(n1)N(C1CCCC1)c1ccccc1C(=O)N2C` [Compound 26], the “KINOMEscan: PDPK1” value at panel of 442 kinases [1] worked out at 99. The “KINOMEscan: ACVR1” value on panel of 442 kinases [2] came out at 100.

The record behind these values is publication PMC3914206.
